Reference: patent US20130324493A1, “COMPOSITIONS COMPRISING NINGNANMYCIN AND USES THEREFOR” (North Carolina State University, priority 2012, published 2013)
Converted amounts (≈) assume the structure as drawn. Like-named read-outs stand apart in the source and are kept apart here.

Tests used:
rabbit [1] = settings: cited from earlier work
Sclerotinia homoeocarpa = test: In vitro sensitivity assay (radial growth on fungicide-amended PDA); type: cell-based; settings: Clarireedia homoeocarpa
Experimental: (§1) Three isolates of S. homoeocarpa and two isolates of C. cereale were selected to evaluate ningnanmycin (Ningnanmycin 10WP, Deqiang Biological Co., LTD. Harbin, Helongjiang, China) in vitro activities using 5 three-fold dilutions from 0.81 to 0.01 μg a.i./ml. […] Based on preliminary experiments, five dilutions of triticonazole were used, ranging from 0.81 to 0.01 μg a.i/ml for isolates of S. homoeocarpa and from 6.25 to 0.01 μg a.i./ml for isolates of C. cereale. All isolates were prepared for long-term storage on pieces of dried filter paper maintained at −80° C. Filter paper sections containing each isolate were removed from −80° C. storage and placed on PDA amended with 0.05 μg/ml each of chloramphenicol, streptomycin, and tetracycline (PDA+++). After 3 days, mycelium-containing plugs (1×1 cm) were transferred to water agar for another 2 days. Then, water agar plugs (0.45 cm diameter) were cut from the periphery of the colony using a cork borer and placed on the center of Petri dishes containing non-amended PDA and PDA amended with the serial concentrations of each fungicide with three replicates per isolate. Radial growth was measured after three days (72 h) incubation at room temperature for isolates of S. homoeocarpa and seven days for isolates of C. cereale. Relative Growth (RG) was calculated by dividing colony diameter on amended PDA by that on the non-amended PDA. EC50 values were then calculated using the method described by Secor et al. (Fungicide resistance assays for fungal plant pathogens. Methods Mol Biol. 835:385-392, 2012). The in vitro sensitivity assay repeated twice and EC50 value of each isolates was determined as the mean of EC50 values from two assays.

Colletotrichum cereale = test: as above; type: cell-based
Experimental: as §1

mammals = settings: Hu et al. 1997; cited from earlier work
honey bee = settings: cited from earlier work
Pantoea ananatis = test: Preliminary in vitro antibacterial study; type: cell-based; settings: ningnanmycin at 100 ug/ml
earthworms = settings: cited from earlier work
Acidovorax aveane = test: Preliminary in vitro antibacterial study; type: cell-based; settings: ningnanmycin at 100 ug/ml
[2] = test system: Magnaporthe poae (summer patch); type: cell-based; settings: preliminary experiment
rat [3] = settings: cited from earlier work
[4] = test system: Ophiosphaerella herpotricha (spring dead spot); test: Preliminary in vitro experiment; type: cell-based
guinea pig = settings: cited from earlier work
anthracnose (C. cereale) = test: Field efficacy test, control of anthracnose on putting green turf; type: in vivo, 'Dominant Plus' creeping bentgrass; settings: for Turf quality: 1-to-9 scale (9 = best), anthracnose trial; for anthracnose control (in words): 2010, August
Xanthomonas pruni = test: Preliminary in vitro antibacterial study; type: cell-based; settings: ningnanmycin at 100 ug/ml
[5] = test system: M. griesea (turf gray leaf pot); test: Preliminary in vitro experiment; type: cell-based
creeping bentgrass = settings: field plots treated with ningnanmycin, 2010 and 2011
[6] = test system: brown patch (Rhizoctonia solani AG2-2IIIB); test: Preliminary field experiment, brown patch; type: in vivo; settings: creeping bentgrass
rabbit [7] = settings: cited from earlier work; remark: listed apart in the source
rat [8] = settings: cited from earlier work; remark: listed apart in the source
P. aphanidermatum = test: In vitro activity on turfgrass strains; type: cell-based, Pythium aphanidermatum
[9] = test system: Rhizoctonia solani (AG2-2IIIB); test: In vitro activity; type: cell-based; settings: AG2-2IIIB causing brown patch on creeping bentgrass
Fish = settings: species not given; cited from earlier work
green algae = settings: green algae, 72 h; cited from earlier work
X. translucent = test: Preliminary in vitro antibacterial study; type: cell-based

CNCC(=O)NC(CO)C(=O)NC1C(C(N)=O)OC(n2ccc(N)nc2=O)C(O)C1O [ningnanmycin, 4-sarcosinamido-L-serinamido-4-deoxy-β-D-pyranoglucuronamido]
Irritation to skin (rabbit [1]): no | EC50 (Sclerotinia homoeocarpa; 72 h, isolate 761SHME, radial growth after 72 h, mean of two assays): 0.02 µg/mL (≈ 0.0451 µM) | EC50 (Sclerotinia homoeocarpa; 72 h, isolate LWC 27, radial growth after 72 h, mean of two assays): 0.01 µg/mL (≈ 0.0226 µM) | EC50 (Sclerotinia homoeocarpa; 72 h, isolate PST4, radial growth after 72 h, mean of two assays): 0.01 µg/mL (≈ 0.0226 µM) | EC50 (Sclerotinia homoeocarpa; read-out: mean EC50, mean of three isolates): 0.01 µg/mL (≈ 0.0226 µM) | EC50 (Colletotrichum cereale; 168 h, isolate ABR1, radial growth after seven days, mean of two assays): 0.36 µg/mL (≈ 0.812 µM) | EC50 (Colletotrichum cereale; 168 h, isolate ABR12, radial growth after seven days, mean of two assays): 0.24 µg/mL (≈ 0.541 µM) | EC50 (Colletotrichum cereale; read-out: mean EC50, mean of two isolates): 0.3 µg/mL (≈ 0.677 µM) | carcinogenicity, reproductive toxicity, developmental effects (mammals): no carcinogenicity, reproductive toxicity, or developmental effects have been observed | toxicity to mammals (mammals): very low toxicity | Non-mammals, honey bee (honey bee): 200 μg/bee | in vitro activity (Pantoea ananatis): did not show any in vitro activity | adverse effects in non-target organisms (earthworms): no adverse effects were observed | in vitro activity (Acidovorax aveane): did not show any in vitro activity | in vitro activity [2]: demonstrated in vitro activity | Acute toxicity Dermal LD50 (rat [3]): >2,000 mg/Kg mg/kg | in vitro activity [4]: demonstrated in vitro activity | Sensitization (guinea pig): no | Turf quality (anthracnose (C. cereale); Ningnanmycin 10WP 0.08 g/m^2, 7 d interval, Aug. 8, 2010): 5 | Turf quality (anthracnose (C. cereale); Ningnanmycin 10WP 0.08 g/m^2, 7 d interval, Aug. 15, 2010): 4 | Turf quality (anthracnose (C. cereale); Ningnanmycin 10WP 0.15 g/m^2, 7 d interval, Aug. 8, 2010): 5 | Turf quality (anthracnose (C. cereale); Ningnanmycin 10WP 0.15 g/m^2, 7 d interval, Aug. 15, 2010): 5 | Turf quality (anthracnose (C. cereale); Ningnanmycin 10WP 0.15 g/m^2, 10 d interval, Aug. 8, 2010): 5 | Turf quality (anthracnose (C. cereale); Ningnanmycin 10WP 0.15 g/m^2, 10 d interval, Aug. 15, 2010): 4 | Turf quality (anthracnose (C. cereale); Ningnanmycin 10WP 0.30 g/m^2, 10 d interval, Aug. 8, 2010): 5 | Turf quality (anthracnose (C. cereale); Ningnanmycin 10WP 0.30 g/m^2, 10 d interval, Aug. 15, 2010): 4 | Turf quality (anthracnose (C. cereale); Ningnanmycin 10WP 0.30 g/m^2, 14 d interval, Aug. 8, 2010): 4 | Turf quality (anthracnose (C. cereale); Ningnanmycin 10WP 0.30 g/m^2, 14 d interval, Aug. 15, 2010): 4 | anthracnose control (in words) (anthracnose (C. cereale); 0.15 g/m^2, 7-day interval): satisfactory level of control | anthracnose control (in words) (anthracnose (C. cereale); 0.15 g/m^2, 14-day interval): lowest suppression of anthracnose but still provided significant suppression compared to the untreated | anthracnose control (in words) (anthracnose (C. cereale); 0.30 g/m^2, 7-day interval): highest level of anthracnose control | anthracnose control (in words) (anthracnose (C. cereale); 0.30 g/m^2, 14-day interval): lowest suppression of anthracnose but still provided significant suppression compared to the untreated | Anthracnose severity (%) (anthracnose (C. cereale); Ningnanmycin 10WP 0.08 g/m^2, 7 d interval, Aug. 1, 2011): 16% | Anthracnose severity (%) (anthracnose (C. cereale); Ningnanmycin 10WP 0.08 g/m^2, 7 d interval, Aug. 8, 2011): 4% | Anthracnose severity (%) (anthracnose (C. cereale); Ningnanmycin 10WP 0.08 g/m^2, 7 d interval, Aug. 15, 2011): 15% | Anthracnose severity (%) (anthracnose (C. cereale); Ningnanmycin 10WP 0.08 g/m^2, 7 d interval, Jul. 25, 2011): 20% | Anthracnose severity (%) (anthracnose (C. cereale); Ningnanmycin 10WP 0.15 g/m^2, 7 d interval, Aug. 1, 2011): 9% | Anthracnose severity (%) (anthracnose (C. cereale); Ningnanmycin 10WP 0.15 g/m^2, 7 d interval, Aug. 8, 2011): 3% | Anthracnose severity (%) (anthracnose (C. cereale); Ningnanmycin 10WP 0.15 g/m^2, 7 d interval, Aug. 15, 2011): 9% | Anthracnose severity (%) (anthracnose (C. cereale); Ningnanmycin 10WP 0.15 g/m^2, 7 d interval, Jul. 25, 2011): 17% | Anthracnose severity (%) (anthracnose (C. cereale); Ningnanmycin 10WP 0.15 g/m^2, 10 d interval, Aug. 1, 2011): 18% | Anthracnose severity (%) (anthracnose (C. cereale); Ningnanmycin 10WP 0.15 g/m^2, 10 d interval, Aug. 8, 2011): 8% | Anthracnose severity (%) (anthracnose (C. cereale); Ningnanmycin 10WP 0.15 g/m^2, 10 d interval, Aug. 15, 2011): 17% | Anthracnose severity (%) (anthracnose (C. cereale); Ningnanmycin 10WP 0.15 g/m^2, 10 d interval, Jul. 25, 2011): 21% | Anthracnose severity (%) (anthracnose (C. cereale); Ningnanmycin 10WP 0.30 g/m^2, 10 d interval, Aug. 1, 2011): 20% | Anthracnose severity (%) (anthracnose (C. cereale); Ningnanmycin 10WP 0.30 g/m^2, 10 d interval, Aug. 8, 2011): 3% | Anthracnose severity (%) (anthracnose (C. cereale); Ningnanmycin 10WP 0.30 g/m^2, 10 d interval, Aug. 15, 2011): 15% | Anthracnose severity (%) (anthracnose (C. cereale); Ningnanmycin 10WP 0.30 g/m^2, 10 d interval, Jul. 25, 2011): 16% | Anthracnose severity (%) (anthracnose (C. cereale); Ningnanmycin 10WP 0.30 g/m^2, 14 d interval, Aug. 1, 2011): 14% | Anthracnose severity (%) (anthracnose (C. cereale); Ningnanmycin 10WP 0.30 g/m^2, 14 d interval, Aug. 8, 2011): 6% | Anthracnose severity (%) (anthracnose (C. cereale); Ningnanmycin 10WP 0.30 g/m^2, 14 d interval, Aug. 15, 2011): 13% | Anthracnose severity (%) (anthracnose (C. cereale); Ningnanmycin 10WP 0.30 g/m^2, 14 d interval, Jul. 25, 2011): 20% | in vitro activity (Xanthomonas pruni): did not show any in vitro activity | in vitro activity [5]: demonstrated in vitro activity | plant growth regulator effects (creeping bentgrass): no plant growth regulator effects were observed | efficacy against brown patch [6]: little to no efficacy | Irritation to eye (rabbit [7]): no | Acute toxicity Oral LD50 (rat [8]; female): 12,100 mg/kg (female) | Acute toxicity Oral LD50 (rat [8]; male): 6,810 mg/kg (male) | in vitro activity (P. aphanidermatum; concentration not given): no in vitro activity | activity against strains infecting turfgrass (P. aphanidermatum; ningnanmycin at 100 ppm): not been able to detect any activity | in vitro activity [9]: showed in vitro activity | Fish LC50 (96 h) (Fish): >1,000 mg/L | Aquatic plants EC50 (green algae): 12.0 mg/L (72 h) | in vitro activity (X. translucent; ningnanmycin at 100 ug/ml, preliminary study): did not show any in vitro activity | activity against strains infecting turfgrass (X. translucent; ningnanmycin at 100 ppm): not been able to detect any activity
